Measured values as given in PMC7266096 (ACS infectious diseases, 2020).
Converted amounts (≈) assume the structure as drawn. Like-named read-outs stand apart in the source and are kept apart here. Marks after values point to notes of the source that are not given here.

How the values were obtained:
NDM-1 [1] = biological target: T1, NDM-1 (Klebsiella pneumoniae, UniProt C7C422); assay: biochemical; assay type: biochemical; conditions: for inhibition of nitrocefin turnover: at the concentrations tested, up to 320 μM
Target sequence in this assay (C7C422 29-270, looked up): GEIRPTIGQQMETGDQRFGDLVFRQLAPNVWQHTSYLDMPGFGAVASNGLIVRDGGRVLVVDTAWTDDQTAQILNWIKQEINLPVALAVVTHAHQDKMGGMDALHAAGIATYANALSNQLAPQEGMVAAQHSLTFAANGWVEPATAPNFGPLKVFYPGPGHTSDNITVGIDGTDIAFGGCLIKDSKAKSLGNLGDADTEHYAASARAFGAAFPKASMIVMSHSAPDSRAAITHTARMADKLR

[2] = tested on: E. coli MG1655 expressing NDM-1; assay: microbe, parasite or virus in culture; assay type: cell-based; conditions: for MIC: Escherichia coli; for MG1655 MIC: compound alone, 20 h, Mueller-Hinton broth
susceptible strains = conditions: no reference given; cited from earlier work
[3] = tested on: E. coli UTI89 expressing NDM-1; assay: microbe, parasite or virus in culture; assay type: cell-based; conditions: for MIC: Escherichia coli; for UTI89 MIC: compound alone, Mueller-Hinton broth
[4] = tested on: E. coli MG1655 expressing CTX-M-1; assay type: cell-based
CoCo-NDM-1 = CoCo-NDM-1 (Klebsiella pneumoniae, UniProt C7C422); assay type: binding; conditions: 300 μM CoCo-NDM-1, one or two equivalents of compound
NDM-1 [5] = biological target: T1, NDM-1; assay type: cell-based, E. coli; conditions: for reduction of nitrocefin turnover: 100 μM, treated for 60 minutes at room temperature
Target sequence in this assay (C7C422 37-270 limits assumed): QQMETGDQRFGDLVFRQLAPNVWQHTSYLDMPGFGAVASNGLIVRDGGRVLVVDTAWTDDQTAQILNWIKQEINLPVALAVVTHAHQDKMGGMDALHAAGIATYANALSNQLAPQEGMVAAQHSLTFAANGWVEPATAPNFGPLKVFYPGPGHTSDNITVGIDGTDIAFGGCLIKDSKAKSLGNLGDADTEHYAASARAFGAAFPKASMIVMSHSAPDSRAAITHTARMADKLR

[6] = tested on: E. coli MG1655 expressing NDM-1; assay type: cell-based
NDM-1 [7] = biological target: T1, NDM-1; assay type: binding; conditions: 10 μM NDM-1, after dialysis
Target sequence in this assay (C7C422 29-270, looked up): as the sequence (C7C422 29-270, looked up) above

NDM-1 [8] = biological target: T1, NDM-1; assay type: biochemical; conditions: 0–60 μM inhibitor; for change of Vmax with increasing inhibitor concentration: 10 nM NDM-1, Figure S5; for inhibition mode: 10 nM NDM-1, nitrocefin 63–500 μM
Target sequence in this assay (C7C422 29-270, looked up): as above

NDM-1 [9] = biological target: T1, NDM-1; assay: Turnover of PcephPT by purified NDM-1; assay type: biochemical; conditions: 5 nM NDM-1, concentrations up to 160 μM, HEPES pH 7.2, 37 °C
Target sequence in this assay (C7C422 29-270, looked up): as above

[10] = MG1655, 20 h, read-out: MG1655 MIC
[11] = OD600 every 30 minutes over 20 h

Chain of CoCo-NDM-1 (C7C422 29-270, looked up): as above

With CO/N=C(\C(=O)N[C@@H]1C(=O)N2C(C(=O)O)=C(CSc3nc(=O)c(=O)[nH]n3C)CS[C@H]12)c1csc(N)n1 [Ceftriaxone] the IC50 (NDM-1 [1]) was 16 µM.

In the case of CC1=C(C(=O)O)N2C(=O)[C@@H](NC(=O)[C@H](N)c3ccccc3)[C@H]2SC1 [Cephalexin], the IC50 (NDM-1 [1]) is reported as 36 µM.

Compound CC(=O)OCC1=C(C(=O)O)N2C(=O)[C@@H](NC(=O)Cc3cccs3)[C@H]2SC1 [Cephalothin] has an IC50 (NDM-1 [1]) of 9.1 µM.

Compound O=C(O)c1cccc(C(=O)O)n1 [DPA, dipicolinic acid] has an IC50 (NDM-1 [1]) of 1.8 µM.

With C[C@@H](O)[C@H]1C(=O)N2C(C(=O)O)=C(SCCN=CN)C[C@H]12 [Imipenem] the IC50 (NDM-1 [1]) was > 100 µM and the “inhibition of nitrocefin turnover” value (NDM-1 [1]) was “did not inhibit nitrocefin turnover”.

For C[C@@H](O)[C@H]1C(=O)N2C(C(=O)O)=C(S[C@@H]3CN[C@H](C(=O)N(C)C)C3)[C@H](C)[C@H]12 [Meropenem], the MIC [2, 10] was > 160 µM, the MIC ([2]; MG1655, read-out: MG1655 MIC of meropenem) was 10 µM and the “MG1655 MIC” value [2] was >160 µM. The “MG1655 MIC of meropenem” value ([2]; with fixed 10 μM PT) was “not restored”, the “MG1655 MIC of meropenem” value ([2]; with fixed 10 μM PcephPT) was “not restored” and the IC50 (NDM-1 [1]) was > 100 µM. The “inhibition of nitrocefin turnover” value (NDM-1 [1]) was “did not inhibit nitrocefin turnover”, the MIC (susceptible strains) was “lower than 10 μM” and the MIC ([3]; 20 h, read-out: UTI89 MIC) was > 160 µM. For the same compound, the MIC ([3]; read-out: UTI89 MIC of meropenem) was 10 µM, the “UTI89 MIC” value ([3]; 20 h) was >160 µM and the “UTI89 MIC of meropenem” value ([3]; with fixed 10 μM PT) was “not restored”. For the same compound, the “UTI89 MIC of meropenem” value ([3]; with fixed 10 μM PcephPT) was “not restored”.

In the case of [O-][n+]1ccccc1S [PT, pyrithione], the MIC [2, 10] is reported as 20 µM (≈ 2.54 µg/mL), the “concentration that fully inhibits growth” value [4, 11] is reported as ≥ 20 µM and the growth pattern ([4]; at 10 μM) is reported as “delayed growth”. For the same compound, the “change of CoCo-NDM-1 UV-Vis spectrum” value (CoCo-NDM-1) was “increase in absorbance in the 500–650 nm region”, the IC50 (NDM-1 [1]) was 17 µM and the MIC ([3]; 20 h, read-out: UTI89 MIC) was 40 µM (≈ 5.09 µg/mL). The “reduction of nitrocefin turnover” value (NDM-1 [5]) was “more than 75%”, the “concentration that fully inhibits growth” value [6, 11] was ≥ 20 µM and the growth pattern ([6]; at 10 μM) was “delayed growth”. The “zinc removed from NDM-1” value (NDM-1 [7]; 40 μM (four equivalents)) was “did not lead to loss of zinc”, the “zinc removed from NDM-1” value (NDM-1 [7]; 160 μM (sixteen equivalents)) was “did not lead to loss of zinc” and the “change of Vmax with increasing inhibitor concentration” value (NDM-1 [8]) was “clear decrease in Vmax”. For the same compound, the inhibition mode (NDM-1 [8]) was “not competitive”.

For O=C(Cc1ccccc1)N[C@@H]1C(=O)N2C(C(=O)O)=C(CSc3cccc[n+]3[O-])CS[C@H]12 [PcephPT, 2-((((6R,7R)-2-carboxy-8-oxo-7-(2-phenylacetamido)-5-thia-1-azabicyclo[4.2.0]oct-2-en-3-yl)methyl)thio)pyridine 1-oxide], the MIC [2, 10] was > 160 µM, the “MG1655 MIC” value [2] was >160 ^* μM and the “turnover of compound by NDM-1” value (NDM-1 [9]) was “turned over by 5 nM NDM-1 efficiently”. For the same compound, the growth pattern ([4]; varying concentrations, compared with PT) was “identical to that caused by PT”, the “change of CoCo-NDM-1 UV-Vis spectrum” value (CoCo-NDM-1) was “increase in absorbance in the 500–650 nm region” and the “effect of increasing incubation time with NDM-1 on IC50” value (NDM-1 [1]; Figure S2) was “did not affect its IC50”. The MIC ([3]; 20 h, read-out: UTI89 MIC) was > 160 µM, the “UTI89 MIC” value ([3]; 20 h) was >160 ^* μM and the “reduction of nitrocefin turnover” value (NDM-1 [5]) was “more than 75%”. The “inhibition of nitrocefin turnover” value (NDM-1 [5]; cells exposed for only 30 minutes, compared with 60 minutes) was “less inhibited”, the “effect of addition of copper on growth pattern” value ([6]; Figure S3) was “no significant difference” and the “time of onset of growth inhibition” value ([6]; at concentrations of 40 μM and higher) was “between five and eight hours”. For the same compound, the “concentration giving delayed onset of growth inhibition” value ([6]; growth initially in all conditions) was ≥ 40 µM, the “zinc removed from NDM-1” value (NDM-1 [7]; 40 μM (four equivalents)) was “did not lead to loss of zinc” and the “zinc removed from NDM-1” value (NDM-1 [7]; 160 μM (sixteen equivalents)) was “did not lead to loss of zinc”. The “change of Vmax with increasing inhibitor concentration” value (NDM-1 [8]) was “clear decrease in Vmax” and the inhibition mode (NDM-1 [8]) was “not competitive”.

c1ccc(CN(CCN(Cc2ccccn2)Cc2ccccn2)Cc2ccccn2)nc1 [TPEN, N,N,N′,N′-tetrakis(2-pyridinylmethyl)-1,2-ethanediamine] showed an IC50 (NDM-1 [1]) of 0.088 µM.
